Source: patent US12180187B2, “1-phenyl-5-azinylpyrazolyl-3-oxyalkyl acids and their use for controlling unwanted plant growth” (BAYER AKTIENGESELLSCHAFT, priority 2019, dated 2024)
Where “and” joins values, the source holds several entries; their conditions need not be identical. Identical values can stand only once.

Key:
AVEFA [1] = experiment: Pre-emergence action at 320 g/ha against AVEFA; assay type: in vivo; details: visual scoring after about 3 weeks vs untreated controls; for pest or weed control at 320 g/ha: Avena fatua, 504 h
Method in brief: (§1)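 Percent herbicidal activity was assessed by eye roughly three weeks post-application, comparing with untreated plants. Treatment consisted of applying formulated compound in water plus 0.5% additive to covering soil at 600 l/ha before emergence.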

HORMU = experiment: Post-emergence action at 320 g/ha against HORMU; assay type: in vivo, Hordeum murinum; details: visual rating about 3 weeks after treatment vs untreated controls
Method in brief: (§2)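 Activity is a visual rating against untreated controls, with 0% like control and 100% dead plants, made about 3 weeks after treatment. Plants grown in sandy loam in the greenhouse received a post-emergence spray at the one-leaf stage of 320 g/ha, formulated as WP or EC with 0.5% additive in 600 l/ha water.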

ALOMY [2] = experiment: Post-emergence action against ALOMY, 1.28 kg/ha; assay type: in vivo, Alopecurus myosuroides; details: dosage 1280 g/ha, visual rating about 3 weeks after treatment vs untreated controls
Method in brief: (§3)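 Spray at one-leaf stage with WP/EC + 0.5% additive, 600 L water/ha. Greenhouse, optimum conditions, ~3 wk. Visual % control vs untreated; 0 = no effect, 100 = dead.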

LOLRI [3] = experiment: Pre-emergence action at 320 g/ha against LOLRI; assay type: in vivo, Lolium rigidum; details: visual scoring after about 3 weeks vs untreated controls; for pest or weed control at 320 g/ha: Lolium rigidum, 504 h
Method in brief: as §1

VERPE [4] = experiment: Pre-emergence action against VERPE, 1280 g/ha; assay type: in vivo, Veronica persica; details: scored visually after about 3 weeks vs untreated controls (100% = plants have died); for pest or weed control at 1280 g/ha: Veronica persica, 504 h
Method in brief: (§4)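 Sandy loam pots, seeds covered with soil; aqueous WP/EC spray on covering soil, 0.5% additive, 600 L/ha. Greenhouse growth, good conditions. Readout: visual % activity at ~3 weeks (0% = like control, 100% = dead).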

DIGSA [5] = experiment: Pre-emergence action against DIGSA, 1280 g/ha; assay type: in vivo, Digitaria sanguinalis; details: visual scoring after about 3 weeks vs untreated controls, 100% = plants have died, 0% = like control plants
Method in brief: as §4

DIGSA [6] = experiment: Post-emergence action against DIGSA, 1.28 kg/ha; assay type: in vivo, Digitaria sanguinalis; details: dosage 1280 g/ha, visual rating about 3 weeks after treatment vs untreated controls
Method in brief: as §3

AVEFA [7] = experiment: Post-emergence action at 320 g/ha against AVEFA; assay type: in vivo; details: visual rating about 3 weeks after treatment vs untreated controls; for pest or weed control at 320 g/ha: Avena fatua, 504 h
Method in brief: as §2

MATIN = experiment: Post-emergence action against MATIN, 1.28 kg/ha; assay type: in vivo, Tripleurospermum inodorum (Matricaria inodora); details: dosage 1280 g/ha, visual rating about 3 weeks after treatment vs untreated controls (100% = plants died)
Method in brief: as §3

VERPE [8] = experiment: Post-emergence action against VERPE, 1.28 kg/ha; assay type: in vivo, Veronica persica; details: dosage 1280 g/ha, visual rating about 3 weeks after treatment vs untreated controls (100% = plants died); for pest or weed control at 1280 g/ha: Veronica persica, 504 h
Method in brief: as §3

PHBPU = experiment: Pre-emergence action at 320 g/ha against PHBPU; assay type: in vivo; details: visual scoring after about 3 weeks vs untreated controls
Method in brief: as §1

ALOMY [9] = experiment: Pre-emergence action against ALOMY, 1280 g/ha; assay type: in vivo, Alopecurus myosuroides; details: visual scoring after about 3 weeks vs untreated controls, 100% = plants have died, 0% = like control plants
Method in brief: as §4

LOLRI [10] = experiment: Pre-emergence action against LOLRI, 1280 g/ha; assay type: in vivo, Lolium rigidum; details: visual scoring after about 3 weeks vs untreated controls, 100% = plants have died, 0% = like control plants; for pest or weed control at 1280 g/ha: Lolium rigidum, 504 h
Method in brief: as §4

VIOTR = experiment: Post-emergence action at 320 g/ha against VIOTR; assay type: in vivo, Viola tricolor; details: visual rating about 3 weeks after treatment vs untreated controls; for pest or weed control at 320 g/ha: Viola tricolor, 504 h
Method in brief: as §2

STEME = experiment: Pre-emergence action at 320 g/ha against STEME; assay type: in vivo, Stellaria media; details: greenhouse, scored visually after about 3 weeks vs untreated controls, 100% = plants have died, 0% = like control plants
Method in brief: as §1

ALOMY [11] = experiment: Post-emergence action against ALOMY, 320 g/ha; assay type: in vivo, Alopecurus myosuroides; details: dosage 320 g/ha, visual rating about 3 weeks after treatment vs untreated controls (100% = plants died)
Method in brief: as §2

Row | SMILES | pest or weed control at 320 g/ha (AVEFA [1]) | Post-emergence action against HORMU in % (HORMU) | Post-emergence action against ALOMY (ALOMY [2]) | pest or weed control at 320 g/ha (LOLRI [3]) | pest or weed control at 1280 g/ha (VERPE [4]) | Pre-emergence action against DIGSA (DIGSA [5]) | Post-emergence action against DIGSA (DIGSA [6]) | pest or weed control at 320 g/ha (AVEFA [7]) | Post-emergence action against MATIN (MATIN) | pest or weed control at 1280 g/ha (VERPE [8]) | Pre-emergence action against PHBPU in % (PHBPU) | Pre-emergence action against ALOMY (ALOMY [9]) | pest or weed control at 1280 g/ha (LOLRI [10]) | Pre-emergence action at 320 g/ha against STEME in % (STEME) | Post-emergence action against AVEFA in % (AVEFA [7]) | Post-emergence action against ALOMY (ALOMY [11]) | Pre-emergence action against LOLRI (LOLRI [10]) | Post-emergence action against VIOTR in % (VIOTR) | Pre-emergence action against VERPE (VERPE [4]) | Post-emergence action against VERPE (VERPE [8]) | also measured
1 | O=C(O)COc1nn(-c2ccccc2F)c(-c2cncnc2)c1Br [VI-007, {[4-Bromo-1-(2-fluorophenyl)-5-(pyrimidin-5-yl)-1H-pyrazol-3-yl]oxy}acetic Acid] | 90% | 90% | 90% | 100% | 90% | 100% | 100% | 100% | 90% | 90% | 90% | 90% | 100% | 100% |  |  |  |  |  |  | pest or weed control at 320 g/ha (VIOTR): 90%
2 | COC(=O)COc1nn(-c2ccc(F)cc2)c(-c2ccc(F)nc2)c1Br [VII-002] |  | 90% |  |  |  |  |  |  | 90% |  |  |  |  | 90% | 100% | 100% | 100% | 90% |  |  | Pre-emergence action against AVEFA in % (AVEFA [1]): 80%
3 | O=C(O)COc1nn(-c2ccccc2F)c(-c2ccc(F)nc2)c1Br [VII-003, {[4-Bromo-1-(2-fluorophenyl)-5-(6-fluoropyridin-3-yl)-1H-pyrazol-3-yl]oxy}acetic acid] | 90% | 90% | 90% | 100% | 90% | 100% | 100% | 80% | 100% | 90% | 90% | 90% | 100% | 90% |  | 80% |  |  |  |  | pest or weed control at 320 g/ha (VIOTR): 90%
4 | CCOC(=O)COc1nn(-c2ccccc2F)c(-c2ccc(F)nc2)c1Br [VII-012, Ethyl {[4-bromo-1-(2-fluorophenyl)-5-(6-fluoropyridin-3-yl)-1H-pyrazol-3-yl]oxy}acetate] | 90% | 90% | 100% | 90% | 100% | 100% | 100% | 90% | 100% and 90% | 90% | 90% and 80% | 100% and 90% | 100% | 100% |  | 90% |  |  |  |  | pest or weed control at 320 g/ha (VIOTR): 90%
5 | CCOC(=O)COc1nn(-c2ccc(F)cc2F)c(-c2ccc(F)nc2)c1Cl [VII-016] |  | 80% |  |  |  |  |  |  | 100% |  | 90% |  |  | 90% | 80% | 90% | 100% | 80% | 90% | 90% | Pre-emergence action against AVEFA in % (AVEFA [1]): 90%; Pre-emergence action against LOLRI in % (LOLRI [3]): 100%
6 | CCOC(=O)C(C)Oc1nn(-c2ccccc2F)c(-c2ccc(F)nc2)c1Br (centres unmarked) [VII-019] |  | 100% | 100% |  |  | 100% | 100% |  |  |  | 90% | 90% |  | 90% | 100% | 100% | 100% | 90% | 100% | 90% | Pre-emergence action against AVEFA in % (AVEFA [1]): 90%; Pre-emergence action against LOLRI in % (LOLRI [3]): 100%
7 | COC(=O)C(C)Oc1nn(-c2ccccc2)c(-c2ccc(F)nc2)c1Cl (centres unmarked) [VII-023, Methyl 2-{[4-chloro-5-(6-fluoropyridin-3-yl)-1-phenyl-1H-pyrazol-3-yl]oxy}propanoate] | 90% | 90% |  | 100% | 100% | 90% | 90% | 80% | 90% | 100% |  |  | 100% | 90% |  | 90% |  |  |  |  | pest or weed control at 320 g/ha (VIOTR): 80%
8 | COC(=O)COc1nn(-c2ccc(F)cc2)c(-c2cccnc2)c1Br [VII-028] |  | 80% |  |  |  |  |  |  | 90% |  | 100% |  |  | 90% | 80% | 80% |  | 80% | 90% | 90% | 
9 | CCC(Oc1nn(-c2ccccc2F)c(-c2ccc(F)nc2)c1Br)C(=O)OC (centres unmarked) [VII-029] |  | 90% | 100% |  |  | 100% | 100% |  |  |  |  | 90% |  | 90% | 90% | 100% | 100% | 100% | 100% | 90% | Pre-emergence action against LOLRI in % (LOLRI [3]): 90%
10 | COC(=O)C(C)Oc1nn(-c2ccccc2)c(-c2cccnc2)c1Cl (centres unmarked) [VII-032] |  | 90% |  |  |  | 90% | 90% |  | 90% |  | 100% |  |  | 90% | 100% | 90% | 100% | 90% | 100% | 100% | Pre-emergence action against AVEFA in % (AVEFA [1]): 80%; Pre-emergence action against LOLRI in % (LOLRI [3]): 100%
